From patent publication US20060106028A1, “Polycyclic aromatics and derivatives thereof and processes for their preparation” (priority 2004, published 2006)
In brackets after ≈: the same amount, converted by molar mass. Where two headings read alike, the source gives them in different places.

Key:
Format in all cases: cell-based
[1] = tested on: Streptococcus pneumoniae PenR (LSPQ 3349); test: Antibacterial activity, MIC (NCCLS M7-A5); settings: MH medium +2% lysed horse blood
[2] = tested on: Escherichia coli (ATCC™ 25922); test: Antibacterial activity (NCCLS M7-A5); settings: MH medium
[3] = tested on: Enterococcus faecalis VRE-2 (ATCC™ 51299); test: Antibacterial activity, MIC (NCCLS M7-A5); settings: BHI+ medium, 35° C., 16 to 20 hours
[4] = tested on: PC-3 (prostate adenocarcinoma); test: In vitro tumor growth inhibition (GI50, propidium iodide); settings: 96 hrs
[5] = tested on: Staphylococcus aureus (ATCC™ 6538P); test: Antibacterial activity, MIC (NCCLS M7-A5); settings: MH medium, 35° C., 16 to 20 hours
SF268 (CNS) = test: In vitro tumor growth inhibition (GI50, propidium iodide); settings: Homo sapiens; SF-268; 96 hrs
[6] = tested on: Clostridium difficile (ATCC™ 9689); test: Antibacterial activity, MIC (NCCLS M11-A5, anaerobic); settings: Clostridioides difficile
Procedure: Antibacterial activity of Compounds 1 and 2 (Table 7) was measured by determining the minimal inhibitory concentration (MIC) necessary to obtain a complete inhibition of bacteria growth in seven indicator strains, namely Staphylococcus aureus (ATCC™ 6538P), Staphylococcus aureus MRS3 (ATCC™ 700699), Enterococcus faecalis VRE-1 (ATCC™ 29212), Enterococcus faecalis VRE-2 (ATCC™ 51299), Escherichia coli (ATCC™ 25922), Streptococcus pneumoniae (LSPQ 3412) and Streptococcus pneumoniae PenR (LSPQ 3349). Indicator strains preparation and MIC determination were performed according to the National Committee for Clinical Laboratory Standards (NCCLS) guideline M7-A5 Methods for Dilution Antimicrobial Susceptibility Tests for Bacteria That Grow Aerobically; Approved Standard-Fifth Edition. (NCCLS document M7-A5, ISBN 1-56238-394-9; NCCLS, 940 West Valley Road, Suite 1400, Wayne, Pa. 19087-1898 USA), the content of which is incorporated herein by reference. MIC determination against C. difficile was performed according to National Committee for Clinical Laboratory Standards (NCCLS) guideline M11-A5 Methods for Antimicrobial Susceptibility Testing of Anaerobic Bacteria.
Compounds 1 and 2 were prepared as 100× stock solutions in DMSO, with concentrations ranging from 3.2 mg/mL to 0.003 mg/mL (a two-fold dilution series over 11 points). An aliquot of each 100× stock solution was diluted 50-fold in test medium described below to give a set of eleven (11) 2× solutions. 50 μL of each of the eleven 2× solutions was aliquoted into the corresponding well of a 12-well row, with the final well reserved for medium alone control.
Vancomycin (Sigma™), used as positive control compound, was prepared as 2× stock solutions in Mueller-Hinton test medium ranging from 64 μg/mL to 0.06 μg/ml (a two-fold dilution series over 11 points). An aliquot of 50 μL corresponding to each concentration (at 2×) was then transferred to 96-well microplates to obtain a series of eleven two-fold dilutions.
An isolated colony of each of the indicator strains was used to inoculate tubes containing 2 mL of test medium. […]

[7] = tested on: HT-29 (colorectal carcinoma); test: In vitro tumor growth inhibition (GI50, propidium iodide); settings: Homo sapiens, 96 hrs
[8] = tested on: Streptococcus pneumoniae (LSPQ 3412); test: Antibacterial activity, MIC (NCCLS M7-A5); settings: MH medium +2% lysed horse blood
[9] = tested on: Enterococcus faecalis VRE-1 (ATCC™ 29212); test: Antibacterial activity, MIC (NCCLS M7-A5); settings: BHI+ medium
[10] = tested on: Staphylococcus aureus MRS3 (ATCC™ 700699); test: Antibacterial activity, MIC (NCCLS M7-A5); settings: MH medium, 35° C., 16 to 20 hours
[11] = tested on: MDA-MB-231 (mammary gland adenocarcinoma); test: In vitro tumor growth inhibition (GI50, propidium iodide); settings: Homo sapiens, 96 hrs
[12] = tested on: Saccharomyces cerevisiae FHCRC-50514; test: Antifungal activity, MIC (NCCLS M27-A); settings: FHCRC50514, after 24 hours, YPD medium
Procedure: (§1) Testing of antifungal activity was performed according to NCCLS method (NCCLS. Reference Method for Broth Dilution Antifungal Susceptibility Testing of Yeasts; Approved Standard. NCCLS document M27-A (ISBN 1-56238-328-0). NCCLS, 940 West Valley Road, Suite 1400, Wayne, Pa. 19087-1898 USA; www.nccls.org.). Compound 1 was prepared as 100× stock solutions in DMSO, with concentrations ranging from 3.2 mg/mL to 0.003 mg/mL (a two-fold dilution series over 11 points). An aliquot of each 100× stock solution was diluted 50-fold in test medium described below to give a set of eleven (11) 2× solutions. 50 μL of each of the eleven 2× solutions was aliquoted into the corresponding well of a 12-well row, with the final well reserved for medium alone control. Inoculum density for each indicator strain was adjusted to OD600=0.1 in 5 mL 0.85% saline, then further diluted 1/1000 in YPD medium. 50 μL of the final dilution (in test medium) of each indicator strain was added to each well of a 12-well row. This brings the final dilution of the test article or control compound in solution to 1×. The final inoculum was approximately 5×10^4 CFU/ml.
(§2) Bacterial strains Streptococcus pneumoniae LSPQ 3412 and LSPQ 3349 were obtained from the “Laboratoire de Sante Publique du Quebec”. Saccharomyces cerevisiae FHCRC-50014 and FHCRC-50514 were obtained from the “Fred Hutchison Cancer Research Center”.

[13] = tested on: Saccharomyces cerevisiae FHCRC-50014; test: Antifungal activity, MIC (NCCLS M27-A); settings: FHCRC50014, after 24 hours, YPD medium
Procedure: as §1, §2

| Structure (SMILES) | MIC [1] [mg/L] | Antibacterial activity [2] | MIC [3] [mg/L] | GI50 [4] [µM] | MIC [5] [mg/L] | GI50 (SF268 (CNS)) [µM] | MIC ([6]; Brucella medium with hemin, vitamin K1 and 5% lysed horse blood, read-out: MIC) [mg/L] | GI50 [7] [µM] | MIC [8] [mg/L] | MIC ([9]; 35° C., 16 to 20 hours) [mg/L] | MIC [10] [mg/L] | GI50 [11] [µM] | MIC [12] [mg/L] | MIC [13] [mg/L] | MIC [6] [mg/L] | MIC ([9]; when tested as control with Compound 2) [mg/L] |
| --- | --- | --- | --- | --- | --- | --- | --- | --- | --- | --- | --- | --- | --- | --- | --- | --- |
| CCC(C)c1cc2c(=O)c3ccc4c(OC)c5c(=O)c6c(O)ccc(O)c6c(=O)c5c(O)c4c3c(=O)c2c(=O)n1CC(=O)N1CC(C(=O)OC)NC(=O)C1C (stereo not shown) [Compound 2] | 1 (≈ 1.33 µM) | inactive | 1 (≈ 1.33 µM) | 4.61 | 0.0625 (≈ 0.0831 µM) | 2.63 | 2 (≈ 2.66 µM) | 16.1 | 1 (≈ 1.33 µM) | 1 (≈ 1.33 µM) | 0.125 (≈ 0.166 µM) | 4.04 |  |  |  |  |
| OC(Cn1cncn1)(Cn1cncn1)c1ccc(F)cc1F [Fluconazole, reference compound] |  |  |  |  |  |  |  |  |  |  |  |  | 0.25 to 0.5 (≈ 0.816 to 1.63 µM) | 8 (≈ 26.1 µM) |  |  |
| CN[C@H](CC(C)C)C(=O)N[C@H]1C(=O)N[C@@H](CC(N)=O)C(=O)N[C@H]2C(=O)N[C@H]3C(=O)N[C@H](C(=O)N[C@H](C(=O)O)c4cc(O)cc(O)c4-c4cc3ccc4O)[C@H](O)c3ccc(c(Cl)c3)Oc3cc2cc(c3O[C@@H]2O[C@H](CO)[C@@H](O)[C@H](O)[C@H]2O[C@H]2C[C@](C)(N)[C@H](O)[C@H](C)O2)Oc2ccc(cc2Cl)[C@H]1O [Vancomycin, reference compound] | 0.5 (≈ 0.345 µM) |  | 32 (≈ 22.1 µM) |  | 1 (≈ 0.69 µM) |  |  |  | 0.5 (≈ 0.345 µM) | 8 (≈ 5.52 µM) | 4 (≈ 2.76 µM) |  |  |  | 0.5 (≈ 0.345 µM) | 4 (≈ 2.76 µM) |
